Experimental data as given in patent publication US20140243292A1, “SUBSITUTED 2-(CHROMAN-6-YLOXYL)-THIAZOLES AND THEIR USE AS PHARMACEUTICALS” (Sanofi, priority 2011, published 2014).

Molecular target: T1, human NCX1 (Homo sapiens, UniProt P32418)
T1 construct: expressed in transfected cells
Experiment: NCX1 inhibition, forward mode (Ca2+ efflux out of cells), FLIPR calcium assay
Assay type: cell-based
Conditions: CHO cells stably expressing human NCX1, read-out: NCX1fw IC50
From the text: The sodium/calcium exchanger NCX1 can transport calcium ions and sodium ions through the cell membrane. The transport is an exchange of Ca^2+ and Na^+ in two directions depending on membrane potential and ion gradients. At the first direction, named “forward mode” or “calcium export mode”, Ca^2+ is transported out of the cell and Na^+ is transported into the cell. At the other direction, named “reverse mode” or “calcium import mode”, the transport directions are vice versa. The effect of the compounds of the invention on NCX1 was determined in CHO cells stably expressing human NCX1 (gene symbol SLC8A1; cf. WO 2009/115238). The assay is based on the monitoring of intracellular Ca^2+ concentrations using a calcium-sensitive fluorescence dye which is detected by means of a FLIPR device (Fluorimetric Imaging Plate Reader, Molecular Devices).
The assay is based on the monitoring of intracellular Ca^2+ concentrations using the PBX Calcium Assay Kit from BD (Becton, Dickinson and Company) with calcium indicator dye 51-9000177BKa (BD, 640177). CHO cells expressing NCX1 were loaded with the dye, and after a preincubation period with the test compound, Ionomycin (Calbiochem, 407950) was added. Ionomycin is an ionophor for Ca^2+ ions mediating an increase of intracellular Ca^2+ ions. Consequently, intracellular Ca^2+ ions are exchanged against extracellular Na^+ ions (Ca^2+ efflux, forward mode). The decrease of intracellular Ca^2+ ions was detected by measuring the fluorescence of the calcium indicator dye at a wavelength of 520 nm by a FLIPR device.
Briefly, similarly as for the reverse mode, for the forward mode transport assay 18000 cells per well were seeded into a 96 well microplate (Corning COSTAR 3904) and incubated overnight in culture medium (cf. above). A total volume of 100 μl medium per well was used. For the preparation of the FLIPR assay, the culture medium was removed from the plates and 100 μl of assay buffer (133.8 mM NaCl (Sigma, S5886); 4.7 mM KCl (Sigma, P3911); 1.25 mM MgCl2 (Merck, 1.05833.0250); 3.5 mM CaCl2(Merck, 1.02083.0250); 5 mM glucose (Sigma, G7021); 10 mM Hepes (Sigma, H4034); pH 7.4)) were added to each well in a washing step. Assay buffer was removed, and 100 μl of a solution of the test compound in assay buffer in different concentrations were added into the wells. Further, 100 μl of dye solution (0.09% (v/v) calcium indicator dye, 9.1% (v/v) signal enhancer (from PBX Calcium Assay Kit); in assay buffer) were added into each well. The plates were incubated in the dark at room temperature for 60 min. Meanwhile a 10 μM solution of Ionomycin in assay buffer (additionally containing 0.05% fetal calf serum (cf. above); 4° C.) was prepared and stored in the wells of a 96 well microplate (96 well microplate, polypropylene, U-shape (Greiner Bio-One, 650201)). The fluorescence monitoring was performed at 60 measuring points with measurement intervals of 2 sec. After the fifth measuring point, 50 μl of the Ionomycin solution were added to each well of the assay plate to give a final Ionomycin concentration of 2 μM. For the determination of the IC50 values the minimal fluorescence value was subtracted from the maximal fluorescence value for the fifteenth to fifty-fifth measuring points. The calculation of the IC50 values via the percentage inhibitions of Ca^2+ efflux out of cells (forward mode) effected by the test compound was performed in Biost@t Speed 2.0. “NCX1fw IC50” in Table 2 means the IC50 value for inhibition of NCX1 in forward mode (in μM (micromol/liter)).

| IC50 [µM] | SMILES |
| --- | --- |
| 2.5 | Cc1ccccc1C1CCc2cc(Oc3ncc(CNC(=O)c4ccno4)s3)ccc2O1 (centres unmarked) [Example 329, Isoxazole-5-carboxylic acid [2-(2-o-tolyl-chroman-6-yloxy)-thiazol-5-ylmethyl]-amide] |
| 0.6 | Cc1ccccc1C1CCc2cc(Oc3ncc(C(=O)NCCO)s3)ccc2O1 (centres unmarked) [Example 299, 2-(2-o-Tolyl-chroman-6-yloxy)-thiazole-5-carboxylic acid (2-hydroxy-ethyl)-amide] |
